Experimental data: ChEMBL document CHEMBL4402608 (J Med Chem, 2020); call rule not given here

How the values were obtained:
[1] = target: Histamine H3 receptor (Homo sapiens, UniProt Q9Y5N1); experiment: Displacement of [3H]-alpha-methylhistamine from recombinant human histamine H3 receptor expressed in HEK Flp-In cell membranes at 10 uM measured after 90 mins by microbeta scintillation counting method relative to control; details: probe [3H]-alpha-methylhistamine
[2] = target: 5-hydroxytryptamine receptor 1E (Homo sapiens, UniProt P28566)
[3] = target: Muscarinic acetylcholine receptor M3 (Homo sapiens, UniProt P20309)
[4] = target: D(1B) dopamine receptor (Homo sapiens, UniProt P21918)
[5] = target: 5-hydroxytryptamine receptor 6 (Homo sapiens, UniProt P50406)
[6] = target: Muscarinic acetylcholine receptor M2 (Homo sapiens, UniProt P08172)
[7] = target: 5-hydroxytryptamine receptor 1B (Homo sapiens, UniProt P28222)
[8] = target: 5-hydroxytryptamine receptor 3A (Homo sapiens, UniProt P46098)
[9] = target: beta3 adrenergic receptor (Homo sapiens, UniProt P13945)
[10] = target: Muscarinic acetylcholine receptor M1 (Homo sapiens, UniProt P11229)
[11] = target: T1, Beta-2 adrenergic receptor (Homo sapiens, UniProt P07550); experiment: Displacement of [3H]-CGP12177 from recombinant human beta2 adrenergic receptor expressed in HEK Flp-In cell membranes at 10 uM measured after 90 mins by microbeta scintillation counting method relative to control; details: probe [3H]-CGP12177
[12] = target: Histamine H4 receptor (Homo sapiens, UniProt Q9H3N8)
[13] = target: Delta-type opioid receptor (Homo sapiens, UniProt P41143)
[14] = target: T2, Alpha-1A adrenergic receptor (Homo sapiens, UniProt P35348)
T2 sequence (P35348 whole entry): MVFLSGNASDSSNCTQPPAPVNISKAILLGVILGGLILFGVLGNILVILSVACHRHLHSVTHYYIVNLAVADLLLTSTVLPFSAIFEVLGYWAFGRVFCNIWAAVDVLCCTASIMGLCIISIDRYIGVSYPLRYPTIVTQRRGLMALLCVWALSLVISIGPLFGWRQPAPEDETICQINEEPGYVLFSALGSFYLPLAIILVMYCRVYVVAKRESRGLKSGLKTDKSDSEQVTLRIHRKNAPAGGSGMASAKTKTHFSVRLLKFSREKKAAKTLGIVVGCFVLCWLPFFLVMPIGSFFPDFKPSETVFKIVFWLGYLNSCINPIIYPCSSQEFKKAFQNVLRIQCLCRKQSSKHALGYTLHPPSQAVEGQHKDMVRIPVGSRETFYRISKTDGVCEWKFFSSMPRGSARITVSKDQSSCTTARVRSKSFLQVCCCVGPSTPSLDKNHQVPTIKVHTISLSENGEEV

[15] = target: T1, Beta-2 adrenergic receptor; experiment: Displacement of [3H]-CGP12177 from recombinant human beta2 adrenergic receptor expressed in HEK Flp-In cell membranes measured after 90 mins by microbeta scintillation counting method
[16] = target: Sigma non-opioid intracellular receptor 1 (Homo sapiens, UniProt Q99720); experiment: Displacement of [3H]-pentazocine from sigma1 receptor (unknown origin) after 90 mins by microbeta scintillation counting method
[17] = target: 5-hydroxytryptamine receptor 1D (Homo sapiens, UniProt P28221)
[18] = target: T3, Alpha-2C adrenergic receptor (Homo sapiens, UniProt P18825)
T3 sequence (P18825 whole entry): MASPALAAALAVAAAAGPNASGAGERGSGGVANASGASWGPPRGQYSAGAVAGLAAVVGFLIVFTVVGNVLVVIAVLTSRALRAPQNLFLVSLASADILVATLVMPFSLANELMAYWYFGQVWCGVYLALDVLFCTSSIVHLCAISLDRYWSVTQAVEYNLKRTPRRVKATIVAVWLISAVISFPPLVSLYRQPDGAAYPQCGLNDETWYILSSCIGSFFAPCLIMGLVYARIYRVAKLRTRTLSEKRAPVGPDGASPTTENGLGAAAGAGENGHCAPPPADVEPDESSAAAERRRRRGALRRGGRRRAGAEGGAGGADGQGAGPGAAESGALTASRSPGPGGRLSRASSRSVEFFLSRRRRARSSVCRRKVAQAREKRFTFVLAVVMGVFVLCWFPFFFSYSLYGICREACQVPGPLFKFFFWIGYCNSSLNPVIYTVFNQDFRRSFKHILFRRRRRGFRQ

[19] = target: 5-hydroxytryptamine receptor 5A (Homo sapiens, UniProt P47898)
[20] = target: T4, D(4) dopamine receptor (Homo sapiens, UniProt P21917); experiment: Agonist activity at Gi/Go-coupled human D4R expressed in CHOK1 cells assessed as induction of beta-arrestin recruitment at 10 uM measured after 90 mins by beta-galactosidase based PathHunter assay; format: cell-based
[21] = target: T4, D(4) dopamine receptor; experiment: Displacement of [3H]-N-methylspiperone from recombinant human D4 receptor stably expressed in HEK cell membranes measured after 90 mins by microbeta scintillation counting method
[22] = target: Atypical chemokine receptor 3 (Homo sapiens, UniProt P25106); experiment: Agonist activity at human PK1-tgged CXCR7 expressed in CHOK1 cells assessed as induction of beta-arrestin recruitment at 10 uM measured after 90 mins by beta-galactosidase based PathHunter assay; format: cell-based
[23] = tested on: GABA(A)/BzR site; experiment: Displacement of [3H]-Flunitrazepam from rat brain GABA(A)/BzR site at 10 uM measured after 90 mins by microbeta scintillation counting method relative to control; details: probe [3H]-Flunitrazepam
[24] = Displacement of [3H]-Flunitrazepam from rat brain GABA(A)/BzR site measured after 90 mins by microbeta scintillation counting method
[25] = target: T5, D(2) dopamine receptor (Homo sapiens, UniProt P14416); experiment: Agonist activity at human D2RL expressed in CHOK1/human U2OS cells assessed as induction of beta-arrestin recruitment at 10 uM measured after 90 mins by beta-galactosidase based PathHunter assay; format: cell-based
[26] = tested on: GABA PBR; experiment: Displacement of [3H]-PK11195 from rat brain GABA PBR at 10 uM measured after 90 mins by microbeta scintillation counting method relative to control; details: probe [3H]-PK11195
[27] = target: T5, D(2) dopamine receptor; experiment: Agonist activity at human D2RS expressed in CHOK1/human U2OS cells assessed as induction of beta-arrestin recruitment at 10 uM measured after 90 mins by beta-galactosidase based PathHunter assay; format: cell-based
[28] = Displacement of [3H]-PK11195 from rat brain GABA PBR measured after 90 mins by microbeta scintillation counting method

T1 sequence (P07550 whole entry): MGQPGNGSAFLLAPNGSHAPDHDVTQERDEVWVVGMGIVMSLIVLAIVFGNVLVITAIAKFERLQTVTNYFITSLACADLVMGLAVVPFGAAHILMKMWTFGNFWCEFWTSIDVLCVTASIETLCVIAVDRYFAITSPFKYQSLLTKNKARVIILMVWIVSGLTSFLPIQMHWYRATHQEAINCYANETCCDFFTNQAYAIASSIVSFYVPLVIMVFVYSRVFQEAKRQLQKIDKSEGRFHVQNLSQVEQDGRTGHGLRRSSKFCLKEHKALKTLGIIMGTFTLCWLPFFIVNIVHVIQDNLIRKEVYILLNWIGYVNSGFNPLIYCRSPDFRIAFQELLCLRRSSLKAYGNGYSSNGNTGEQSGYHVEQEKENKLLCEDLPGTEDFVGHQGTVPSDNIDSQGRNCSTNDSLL
T4 sequence (P21917 whole entry): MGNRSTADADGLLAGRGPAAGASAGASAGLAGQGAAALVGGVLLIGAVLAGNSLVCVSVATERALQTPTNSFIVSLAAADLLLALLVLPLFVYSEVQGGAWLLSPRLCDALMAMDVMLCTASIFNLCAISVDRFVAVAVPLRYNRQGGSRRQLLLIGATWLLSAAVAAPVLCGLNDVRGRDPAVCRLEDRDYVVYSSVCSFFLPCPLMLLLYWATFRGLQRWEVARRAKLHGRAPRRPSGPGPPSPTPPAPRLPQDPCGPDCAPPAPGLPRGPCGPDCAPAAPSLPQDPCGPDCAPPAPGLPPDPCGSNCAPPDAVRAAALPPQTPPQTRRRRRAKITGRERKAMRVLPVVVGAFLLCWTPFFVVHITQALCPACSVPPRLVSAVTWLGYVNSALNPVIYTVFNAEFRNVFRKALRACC
T5 sequence (P14416 whole entry): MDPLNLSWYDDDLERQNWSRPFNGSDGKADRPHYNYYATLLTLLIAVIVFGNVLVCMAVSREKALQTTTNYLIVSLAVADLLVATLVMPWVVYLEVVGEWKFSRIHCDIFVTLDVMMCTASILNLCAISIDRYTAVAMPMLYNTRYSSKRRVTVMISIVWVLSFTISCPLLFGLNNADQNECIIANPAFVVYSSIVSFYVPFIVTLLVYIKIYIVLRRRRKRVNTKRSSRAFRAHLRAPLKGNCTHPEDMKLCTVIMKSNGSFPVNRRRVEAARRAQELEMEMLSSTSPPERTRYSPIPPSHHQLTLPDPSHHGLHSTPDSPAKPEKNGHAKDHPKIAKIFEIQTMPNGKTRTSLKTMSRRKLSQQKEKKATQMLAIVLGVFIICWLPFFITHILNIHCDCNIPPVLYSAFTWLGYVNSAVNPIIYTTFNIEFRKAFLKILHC
Sequence of Histamine H3 receptor (Q9Y5N1 whole entry): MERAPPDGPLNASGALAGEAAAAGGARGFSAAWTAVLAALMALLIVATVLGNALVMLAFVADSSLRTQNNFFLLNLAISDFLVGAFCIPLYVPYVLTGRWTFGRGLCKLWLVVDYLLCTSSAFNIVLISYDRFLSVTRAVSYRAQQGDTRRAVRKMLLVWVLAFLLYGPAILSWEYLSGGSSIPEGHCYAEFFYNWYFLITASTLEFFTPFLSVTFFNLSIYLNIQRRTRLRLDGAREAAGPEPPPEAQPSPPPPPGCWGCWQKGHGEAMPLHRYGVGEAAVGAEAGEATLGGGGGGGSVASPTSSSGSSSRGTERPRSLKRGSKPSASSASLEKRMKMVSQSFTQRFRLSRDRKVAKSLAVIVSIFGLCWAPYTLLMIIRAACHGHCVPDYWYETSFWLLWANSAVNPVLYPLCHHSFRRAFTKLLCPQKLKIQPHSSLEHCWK
Sequence of 5-hydroxytryptamine receptor 3A (P46098 whole entry): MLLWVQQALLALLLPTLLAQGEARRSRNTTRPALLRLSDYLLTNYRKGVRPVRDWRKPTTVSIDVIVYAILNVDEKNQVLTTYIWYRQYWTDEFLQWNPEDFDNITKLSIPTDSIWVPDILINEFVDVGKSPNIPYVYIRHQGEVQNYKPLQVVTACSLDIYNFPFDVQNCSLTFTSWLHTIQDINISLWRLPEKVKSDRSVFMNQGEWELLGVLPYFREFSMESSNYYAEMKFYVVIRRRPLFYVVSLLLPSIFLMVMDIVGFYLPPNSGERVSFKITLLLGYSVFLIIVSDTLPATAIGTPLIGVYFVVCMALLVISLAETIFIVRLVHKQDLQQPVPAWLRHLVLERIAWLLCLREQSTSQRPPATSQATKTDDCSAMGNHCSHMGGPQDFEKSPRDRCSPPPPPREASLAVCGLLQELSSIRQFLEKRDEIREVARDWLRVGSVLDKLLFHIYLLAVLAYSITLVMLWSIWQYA
Sequence of Muscarinic acetylcholine receptor M3 (P20309 whole entry): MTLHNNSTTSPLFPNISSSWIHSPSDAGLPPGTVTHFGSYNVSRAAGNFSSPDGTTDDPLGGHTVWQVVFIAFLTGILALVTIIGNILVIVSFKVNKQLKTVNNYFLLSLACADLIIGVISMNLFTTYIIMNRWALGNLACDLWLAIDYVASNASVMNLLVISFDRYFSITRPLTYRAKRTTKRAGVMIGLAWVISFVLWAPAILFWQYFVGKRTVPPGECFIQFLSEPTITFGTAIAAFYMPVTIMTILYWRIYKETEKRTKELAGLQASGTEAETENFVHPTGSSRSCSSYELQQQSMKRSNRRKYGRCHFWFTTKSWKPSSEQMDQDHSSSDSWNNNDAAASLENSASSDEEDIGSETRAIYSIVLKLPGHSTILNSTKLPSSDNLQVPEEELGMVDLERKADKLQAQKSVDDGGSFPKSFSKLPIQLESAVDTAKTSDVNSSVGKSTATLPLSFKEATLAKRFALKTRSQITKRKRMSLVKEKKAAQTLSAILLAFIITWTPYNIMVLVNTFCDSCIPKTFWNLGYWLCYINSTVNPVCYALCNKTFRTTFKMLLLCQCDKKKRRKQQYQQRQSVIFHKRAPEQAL
Sequence of beta3 adrenergic receptor (P13945 whole entry): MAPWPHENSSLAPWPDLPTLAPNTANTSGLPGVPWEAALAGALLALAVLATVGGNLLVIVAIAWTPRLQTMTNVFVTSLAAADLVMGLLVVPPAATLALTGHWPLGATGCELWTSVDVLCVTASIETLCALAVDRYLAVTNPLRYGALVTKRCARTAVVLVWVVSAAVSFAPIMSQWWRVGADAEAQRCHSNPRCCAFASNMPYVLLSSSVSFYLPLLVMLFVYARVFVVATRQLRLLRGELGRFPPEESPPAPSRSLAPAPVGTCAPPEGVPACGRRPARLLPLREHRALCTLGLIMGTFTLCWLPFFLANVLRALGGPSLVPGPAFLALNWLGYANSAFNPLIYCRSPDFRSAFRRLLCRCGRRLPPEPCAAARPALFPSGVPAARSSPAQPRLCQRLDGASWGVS
Sequence of Sigma non-opioid intracellular receptor 1 (Q99720 whole entry): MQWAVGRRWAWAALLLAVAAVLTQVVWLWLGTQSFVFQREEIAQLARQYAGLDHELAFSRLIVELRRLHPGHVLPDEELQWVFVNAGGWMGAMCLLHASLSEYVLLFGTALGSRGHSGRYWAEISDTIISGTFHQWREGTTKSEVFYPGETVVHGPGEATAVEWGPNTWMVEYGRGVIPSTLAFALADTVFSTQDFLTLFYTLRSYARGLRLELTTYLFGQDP
Sequence of Delta-type opioid receptor (P41143 whole entry): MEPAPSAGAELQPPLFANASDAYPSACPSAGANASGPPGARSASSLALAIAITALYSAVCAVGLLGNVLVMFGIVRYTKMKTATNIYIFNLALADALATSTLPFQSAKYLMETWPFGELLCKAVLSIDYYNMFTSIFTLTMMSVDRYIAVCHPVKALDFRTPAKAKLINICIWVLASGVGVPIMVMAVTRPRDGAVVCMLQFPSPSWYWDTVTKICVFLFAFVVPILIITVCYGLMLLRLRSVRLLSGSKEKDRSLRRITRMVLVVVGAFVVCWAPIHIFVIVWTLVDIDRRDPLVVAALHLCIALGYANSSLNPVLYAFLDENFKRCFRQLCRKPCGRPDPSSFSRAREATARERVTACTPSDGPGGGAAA
Sequence of 5-hydroxytryptamine receptor 1E (P28566 whole entry): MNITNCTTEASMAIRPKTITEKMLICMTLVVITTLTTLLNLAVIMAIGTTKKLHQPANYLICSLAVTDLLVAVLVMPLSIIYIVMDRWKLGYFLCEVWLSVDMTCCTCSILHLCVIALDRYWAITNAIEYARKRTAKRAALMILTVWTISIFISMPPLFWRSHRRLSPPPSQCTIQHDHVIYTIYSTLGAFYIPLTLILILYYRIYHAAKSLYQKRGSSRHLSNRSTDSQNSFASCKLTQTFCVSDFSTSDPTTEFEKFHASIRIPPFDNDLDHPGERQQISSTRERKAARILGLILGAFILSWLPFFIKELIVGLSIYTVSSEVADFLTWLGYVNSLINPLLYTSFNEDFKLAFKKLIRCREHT
Sequence of 5-hydroxytryptamine receptor 1D (P28221 whole entry): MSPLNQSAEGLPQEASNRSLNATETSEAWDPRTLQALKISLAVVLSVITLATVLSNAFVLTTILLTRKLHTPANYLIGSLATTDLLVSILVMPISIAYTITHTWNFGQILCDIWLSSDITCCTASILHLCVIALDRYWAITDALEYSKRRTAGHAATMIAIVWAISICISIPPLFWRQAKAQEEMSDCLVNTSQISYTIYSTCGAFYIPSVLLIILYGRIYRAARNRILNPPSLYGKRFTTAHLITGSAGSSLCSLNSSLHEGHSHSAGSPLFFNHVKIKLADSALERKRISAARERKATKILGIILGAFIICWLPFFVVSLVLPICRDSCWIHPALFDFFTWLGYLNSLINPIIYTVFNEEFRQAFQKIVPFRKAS
Sequence of Histamine H4 receptor (Q9H3N8 whole entry): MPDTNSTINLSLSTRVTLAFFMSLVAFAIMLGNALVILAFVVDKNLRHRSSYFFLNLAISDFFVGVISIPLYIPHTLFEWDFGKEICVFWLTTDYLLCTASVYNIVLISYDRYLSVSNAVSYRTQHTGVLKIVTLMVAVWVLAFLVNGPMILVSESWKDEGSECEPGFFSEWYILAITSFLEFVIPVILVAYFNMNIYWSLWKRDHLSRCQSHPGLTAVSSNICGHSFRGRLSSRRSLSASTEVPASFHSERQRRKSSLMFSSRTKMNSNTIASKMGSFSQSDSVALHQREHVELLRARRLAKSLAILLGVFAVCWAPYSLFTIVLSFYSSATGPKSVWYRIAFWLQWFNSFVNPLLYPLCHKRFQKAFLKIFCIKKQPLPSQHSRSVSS

## CCCN[C@H]1CCc2nc(N)sc2C1 [PRAMIPEXOLE]
[1]
  inhibition at […], 10 µM: < 50%
[2]
  Ki: > 10 µM
[3]
  Ki: > 10 µM
[4]
  Ki: > 10 µM
[5]
  Ki: > 10 µM
[6]
  Ki: > 10 µM
[7]
  Ki: 3.51 µM
[8]
  Ki: > 10 µM
[9]
  Ki: > 10 µM
[10]
  Ki: > 10 µM
[11]
  inhibition at […], 10 µM: > 50%
[12]
  Ki: > 10 µM
[13]
  Ki: > 10 µM
[14]
  Ki: > 10 µM
[15]
  Ki: > 10 µM
[16]
  Ki: 4.45 µM
[17]
  Ki: > 10 µM
[18]
  Ki: 0.0522 µM
[19]
  Ki: > 10 µM

## CCCN(CC[C@]1(O)C[C@H](NC(=O)c2ccc3ccccc3c2)C1)[C@H]1CCc2nc(N)sc2C1
[20]
  Activity: Active
[21]
  Ki: 0.045 µM
[22]
  Activity: Active
[1]
  inhibition at […], 10 µM: > 50%
[23]
  inhibition at […], 10 µM: < 50%
[24]
  Ki: Not Active
[25]
  Activity: Active
[26]
  inhibition at […], 10 µM: < 50%
[27]
  Activity: Active
[28]
  Ki: Not Active
